The results in this text go back to ChEMBL document CHEMBL1150187, “Two new natural azafluorene alkaloids and a cytotoxic aporphine alkaloid from Polyalthia longifolia” (1990).

Converted amounts (≈) assume the structure as drawn. The source made the active and inactive calls. The calls are words filed in the database; no cut-off is given here.

What all share (type): functional
One test concerns KB. Description: Cytotoxicity against human KB cells.
A further test concerns L1210. Description: Cytotoxicity against mouse L1210 cells.
A further test concerns A549. Description: Cytotoxicity against human A549 cells.
For the next test, the system named is HCT-8. Description: Cytotoxicity against human HCT8 cells.
The test system of another test is P388. Description: Cytotoxicity against mouse P388 cells.
The mark [1] stands for this setting: read-out: ED50 (the source's name).

Take `C[N+]1([O-])CCc2cc3c(c4c2[C@H]1[C@@H](O)c1ccccc1-4)OCO3` (stereo not given in full): the result with KB, in the test on L1210, in the test with A549, in the test on HCT-8 and in the test with P388 was inactive.
For `O=C1c2ccccc2-c2c3c(cc4ccnc1c24)OCO3` [LIRIODENINE], the EC50 in the test on KB (setting [1]) turned out to be 1 µg/mL (≈ 3.63 µM); in the test on L1210 (setting [1]), 2.33 µg/mL (≈ 8.46 µM); with A549 (setting [1]) it was 0.72 µg/mL (≈ 2.62 µM); with HCT-8 (setting [1]), 0.7 µg/mL (≈ 2.54 µM); in the test with P388 (setting [1]), 0.57 µg/mL (≈ 2.07 µM).
Consider `COc1c(O)cc2c(c1OC)-c1nccc(C)c1C2=O`, for which the result in the test on KB, in the test on L1210, in the test on A549, in the test with HCT-8 and in the test with P388 was inactive.
Consider `COc1cc2c(cc1O)C(=O)c1c(C)ccnc1-2`, for which the outcome with KB, in the test with L1210, in the test with A549, in the test on HCT-8 and in the test with P388 was inactive.
For `COc1cc2c(cc1OC)-c1nccc(C)c1C2=O`, the result with KB, in the test on L1210, with A549, in the test on HCT-8 and in the test with P388 was inactive.
For the compound `O[C@H]1c2ccccc2-c2c3c(cc4c2[C@@H]1NCC4)OCO3`, the outcome with KB, in the test on L1210, with A549, with HCT-8 and in the test on P388 was inactive.
